Laboratory results: patent US20090247732A1 (Optimer Pharmaceuticals, Inc., priority 2003, published 2009)
Ends that are not written are not given here. Peptide text beside a SMILES is read from it. * marks the point of attachment. Fmoc = O=C(OCC1c2ccccc2-c2ccccc21)*

Legend:
trypsin [1] = assay: Degradation study with trypsin (LCMS, product ratios by PDA integration); type: in vitro ADME; parameters: key to Deg 1 / Deg 2: product ratio (%) by PDA peak integration; conditions: for Deg 1 / Deg 2 / mode of enzymatic degradation (cleavage site / products): trypsin; for Deg 1 / Deg 2: pH 7.5; for Parent (%): 120 units trypsin, 0.1 M pH 7.5 potassium phosphate buffer; for mode of enzymatic degradation (cleavage site / products): in words
Procedure: Degradation Study: A solution of 1 (1 mg) in 0.1 M, pH 7.5 potassium phosphate buffer (1 mL) was treated with 120 units of trypsin (10 μL of a 1 mg/mL solution of trypsin 12000 units/mg). A 20 μL aliquot of the sample was immediately analyzed by LCMS.
Column: Waters Symmetry 300, 4.6×250 mm, C18, 5 micron particle size.
Solvent B: Acetonitrile/0.1% TFA
Gradient: 15-40% B over 30 minutes; 15% B isocratic for 10 minutes
The initial injection was defined as “time 0” and one subsequent injection was carried out at 40 minutes. The degradation products were characterized by mass spectrometry using electrospray positive ionization (ES^+). Product ratios were determined by integration of photodiode array (PDA) spectra.

trypsin [2] = assay: trypsin in 0.1 M, pH 7.5 potassium phosphate buffer; conditions: up to 40 minutes
[3] = degradation product 1, time 40 minutes
[4] = degradation product 2, time 40 minutes
[5] = time 40 (injection at 40 minutes)

Row | Compound | Deg 1 (trypsin [1]; degradation product 1, time 0) | Deg 1 (trypsin [1]; [3]) | Deg 2 (trypsin [1]; degradation product 2, time 0) | Deg 2 (trypsin [1]; [4]) | Parent (%) (trypsin [1]; time 0 (initial injection)) | Parent (%) (trypsin [1]; [5]) | cleaved bond (trypsin [2]) | mode of enzymatic degradation (cleavage site / products) (trypsin [1]) | not cleaved (trypsin [2]) | fragment found (trypsin [2])
1 | Compound 2: Crude triphenylmethyl protected glycopeptide from peptide A (SEQ ID No. 1) and carbohydrate glycolic acid C (KKRGGS; also: glycopeptide with carbohydrate glycolic acid C, triphenylmethyl protected) | 0 | 67 | – | – | 60 | 27 | – | a single, as yet uncharacterized product of the enzyme reaction | – | –
2 | KKRGGS | – | – | – | – | – | – | – | – | 100% parent at 40 minutes; no degradation products observed | –

More lines, main results first:

Row | Deg 1 (trypsin [1]; degradation product 1, time 0) | Deg 1 (trypsin [1]; [3]) | Deg 2 (trypsin [1]; degradation product 2, time 0) | Deg 2 (trypsin [1]; [4]) | Parent (%) (trypsin [1]; time 0 (initial injection)) | Parent (%) (trypsin [1]; [5]) | cleaved bond (trypsin [2]) | Compound | mode of enzymatic degradation (cleavage site / products) (trypsin [1]) | not cleaved (trypsin [2]) | fragment found (trypsin [2])
3 | 5 | 0 | 20 | 100 | 75 | 0 | – | CC(=O)OCC1OC(OC2C(COC(C)=O)OC(OC3C(COC(C)=O)OC(OCC(=O)NC(CCCCN)C(=O)NC(CCCCN)C(=O)NC(CCCNC(=N)N)C(=O)NCC(=O)NCC(=O)NC(CO)C(=O)O)C(OC(C)=O)C3OC(C)=O)C(OC(C)=O)C2OC(C)=O)C(OC(C)=O)C(OC(C)=O)C1OC(C)=O (stereo not shown) [Compound 1] | hydrolysis is initially observed between the arginine and glycine residues | – | –
4 | 4 | 54 | 4 | 45 | 92 | 1 | – | N=C(N)NCCCC(NC(=O)C(CCCCN)NC(=O)C(CCCCN)NC(=O)OCC1c2ccccc2-c2ccccc21)C(=O)NCC(=O)NCC(=O)NC(CO)C(=O)O (stereo not shown) [Compound 4] (Fmoc-KKRGGS-OH; configuration not given here) | hydrolysis occurs sequentially inward from the N-terminus | – | –
5 | – | – | – | – | – | – | arginine-glycine, first_seen | KKRGGS [1] | – | – | the two lysine residues conjugated to the carbohydrate
